The results in this text go back to a melting point compilation (Tetko et al.).

Usually melting point stands for the temperature of the solid-liquid transition.

Turning to `Cc1ccc(Oc2ccc(N)cc2)nc1`, the melting point was 90 to 92 °C. To `CN1CCc2ncnc(Cl)c2C1` belongs 67 to 69 °C; to `CC(CC(=O)O)c1ccc(C(F)(F)F)cc1` (stereo unspecified), 88 to 90 °C.

In turn, `O=C(CN1CCNCC1)N1CCCCC1` returned a melting point of 83 to 85 °C. `O=C1CCc2c(Cl)cccc21` registered a melting point of 84 to 86 °C.

For `CN(CCO)CCC(=O)O`, the melting point was in the range of 89 to 91 °C. To `CCCC(NC(=O)Cc1ccccc1)C(=O)O` (stereo unspecified) belongs 133 to 135 °C; to `NCc1ccc(-c2ccc3c(c2)CCCO3)cc1`, 89 to 91 °C; to `COC(=O)C1C2CCC(N2)C1C(=O)OC` (stereo unspecified), 77 to 79 °C. In turn, `Cc1cnn([N+](=O)[O-])c1` had a melting point of 41 to 43 °C. Turning to `CCCN(CCC)C(=O)C1C2C=CC(C2)C1C(=O)O` (stereo unspecified), the melting point is 113 to 115 °C. In turn, `CCN(CC)S(=O)(=O)c1cccc(C(=O)NC(C(=O)O)C(C)C)c1` (stereo unspecified) returned a melting point of 110 to 112 °C. Compound `CC(=O)c1c(C#N)c2n(c1C)CCC2` came in with a melting point of 132 to 134 °C. To `Nc1nnc(CCc2ccccc2)o1` belongs 195 to 197 °C; to `OCc1ccccc1Oc1ccc(I)cc1`, 65 to 67 °C; to `BrCc1cnn(-c2ccccc2)n1`, 44 to 46 °C. To `O=S(=O)(Cl)c1ccc(Br)c(C(F)(F)F)c1` belongs 29 to 31 °C; to `O=C(O)c1ccccc1S(=O)(=O)N1CCCCC1`, 106 to 108 °C.

The compound `N#CCc1ccc([N+](=O)[O-])cc1Br` displayed a melting point of 66 to 68 °C.

Take `CN1CCCc2cc(/C=C/C(=O)O)ccc21`: the melting point was 169 to 171 °C. To `CCn1c(C(=O)O)cc2ccccc21` belongs 177 to 179 °C; to `Fc1ccc(NCc2cccnc2)cc1`, 89 to 91 °C. To `COC(=O)c1ccc2c(Cl)ncnc2c1` belongs 104 to 106 °C; to `O=[N+]([O-])c1ccc(S(=O)(=O)Cl)cn1`, 81 to 83 °C. To `Cc1cc(COc2ccc(C(=O)O)cc2Br)on1` belongs 209 to 211 °C; to `N#Cc1sc2ccccc2c1N`, 155 to 157 °C. `Cc1cnc2c(Cl)nccc2n1` registered a melting point of 139 to 141 °C. Consider `O=C(NC(Cc1ccccc1)C(=O)O)c1ccc(Cl)cc1` (stereo unspecified), for which the melting point is 195 to 197 °C. To `COC(=O)c1cc2ccccc2cc1N` belongs 99 to 101 °C; to `CCC(=O)Nc1cc2ccccc2cc1C(=O)O`, 234 to 236 °C; to `CN1N=C(C(=O)O)CCC1=O`, 156 to 158 °C. To `CCOC(=O)c1cnc(C)c(C(=O)O)c1` belongs 199 to 201 °C; to `O=C(O)C1CC(=O)N(c2ccc(S(=O)(=O)Cl)cc2)C1` (stereo unspecified), 157 to 159 °C; to `O=C1COc2ccccc2C(=O)N1`, 149 to 151 °C. To `CCOC(=O)c1ccc(S(=O)(=O)N2CCNCC2)cc1` belongs 94 to 96 °C; to `NNC(=S)N1CCOCC1`, 181 to 183 °C; to `CS(=O)(=O)c1cc(S(N)(=O)=O)ccc1F`, 202 to 204 °C. `CCCC1CCc2nc(N)sc2C1` (stereo unspecified) gave a melting point of 78 to 80 °C. To `CCc1cnc(N)s1` belongs 54 to 56 °C; to `COc1ccc(CCn2c(S)nc3ccccc3c2=O)cc1OC`, 223 to 225 °C. To `COC(=O)c1ccc(C(=O)OC)c(NC(=O)C(C)Cl)c1` (stereo unspecified) belongs 128 to 130 °C; to `O=S(=O)(Cl)c1ccccc1-c1ccno1`, 74 to 76 °C. `Cc1oc(-c2ccco2)nc1CC(=O)O` yielded a melting point of 176 to 178 °C. To `CSc1ccc(C(=O)CCC(=O)O)cc1` belongs 152 to 154 °C; to `NC(CN1CCc2ccccc21)=NO`, 93 to 95 °C.

In the case of `CS(=O)(=O)CC1(CBr)CC1`, the melting point was 50 to 52 °C. To `O=C(Nc1ccccc1C(=O)O)OCc1ccccc1` belongs 129 to 131 °C; to `OCc1ccc2c(c1)CCC2`, 69 to 71 °C. To `O=C(O)C(CS(=O)(=O)c1ccccc1)N1CCOCC1` (stereo unspecified) belongs 190 to 192 °C; to `O=C(O)c1cccc(S(=O)(=O)Nc2ccc(OCc3ccccc3)cc2)c1`, 81 to 83 °C; to `N#CCc1nc(C23CC4CC(CC(C4)C2)C3)cs1`, 57 to 59 °C. With `CCc1ccccc1OCC(=O)NN`, the melting point is 107 to 109 °C.

As to `Cc1nc2ccccc2c2c(N)c3ccccc3n12`, the melting point lay within 200 to 202 °C.

`O=C1CC2(CCCC2)C(=O)O1` displayed a melting point of 33 to 35 °C.

In the case of `N#CN=C1CCCN1`, the melting point is 126 to 128 °C. To `COC(=O)c1nc2nc(C(C)C)cc(Cl)n2n1` belongs 104 to 106 °C; to `CC1Cc2ccccc2N1S(N)(=O)=O` (stereo unspecified), 67 to 69 °C. In turn, `CCC(=O)N1CCCC(C(=O)O)C1` (stereo unspecified) showed a melting point of 117 to 119 °C. To `NC(=S)NCc1ccc(Br)cc1` belongs 159 to 161 °C; to `O=C(O)C1(O)Cc2ccccc2C1`, 176 to 178 °C; to `CS(=O)(=O)CC(=O)c1ccccc1F`, 77 to 79 °C.

`Cc1c(C(=O)O)cnn1C(C)C`: the melting point lay in the range of 142 to 144 °C. To `O=C(O)c1cc2ccc(F)cc2s1` belongs 220 to 222 °C. To `COc1cccc(-c2nnn[nH]2)c1` belongs 181 to 183 °C; to `O=C(O)c1ccc(O)c(S(=O)(=O)Cl)c1`, 189 to 191 °C. To `CCOC(=O)c1nnc2ccccc2c1Cl` belongs 53 to 55 °C. In turn, `CC1CN(S(=O)(=O)c2ccc(C(=O)O)cc2)CC(C)O1` (stereo unspecified) showed a melting point of 268 to 270 °C. `O=C(O)C1CCN(S(=O)(=O)c2ccc(F)c(Cl)c2)CC1` displayed a melting point of 190 to 192 °C. `CCC1(c2ccc(C)cc2)CC(=O)NC1=O` (stereo unspecified) had a melting point of 76 to 78 °C. `O=C(O)CNC(=O)CNS(=O)(=O)Cc1ccc(F)cc1` had a melting point of 198 to 200 °C.

Consider `CCOc1cc(Br)c(CC(=O)O)cc1OCC`, for which the melting point was in the range of 128 to 129 °C. `COC(=O)c1cc(S(N)(=O)=O)cnc1Cl`: the melting point was 60 to 62 °C. To `CC(C)(C)c1cn2nc(Br)sc2n1` belongs 105 to 107 °C; to `Cc1ccc(/C=C/c2n[nH]c(S)n2)o1`, 275 to 277 °C; to `CCOC(=O)c1c(C)oc2ccc(O)cc12`, 136 to 138 °C.

In turn, `CC(C)(C)OC(=O)NCCN=C=O` displayed a melting point of 102 to 104 °C. To `CCOCCNC(=O)c1cccc(Br)c1` belongs 62 to 64 °C; to `Cc1cc(C)c(CCNC(=O)CCl)c(C)c1`, 143 to 145 °C; to `CC(C(=O)O)c1cc2ccccc2o1` (stereo unspecified), 91 to 93 °C. To `O=C(CCl)NCc1ccc(C(=O)N2CCCC2)cc1` belongs 128 to 130 °C; to `O=C(O)c1cc(C2CC2)nc2c1cnn2Cc1ccccc1`, 209 to 211 °C; to `Cc1nc(N)sc1-c1ccccc1`, 163 to 165 °C. To `BrC12CC3CC(C1)CC(Br)(C3)C2` belongs 108 to 110 °C.

Compound `CCc1cccc2c(C(=O)CCl)c[nH]c12` registered a melting point of 165 to 167 °C. In the case of `Cc1nc2sc(C(=O)O)c(C)c2c(=O)[nH]1`, the melting point is 388 to 390 °C. To `NNC(=O)NCc1ccco1` belongs 88 to 90 °C. To `CC(C)C(C)(C#N)NC(=O)CCl` (stereo unspecified) belongs 71 to 73 °C.

Compound `CS(=O)(=O)c1ccc(-c2nc(CCl)cs2)cc1` came in with a melting point of 151 to 153 °C. As for `CCC(=O)c1ccc(OC(F)F)cc1`, the melting point fell in the range of 39 to 43 °C. To `N#CCS(=O)(=O)N1CCCCC1` belongs 137 to 139 °C; to `Clc1ncnc2c1CCC2`, 39 to 41 °C. To `COCC1(C)CNC(=O)C1` (stereo unspecified) belongs 62 to 64 °C; to `O=C(O)c1cc(N2CCCC2=O)cc(C(F)(F)F)c1`, 188 to 190 °C; to `O=C(O)c1cnc(Cl)c([N+](=O)[O-])c1`, 126 to 128 °C. To `O=c1[nH]c(CCl)nc2scc(-c3cccs3)c12` belongs 219 to 221 °C; to `O=C(CCl)Nc1ccc(-c2ccccc2)cc1`, 121 to 123 °C. With `Cc1cnc(-c2cccc(C(=O)O)c2)s1`, the melting point fell in the range of 210 to 212 °C. To `O=Cc1ccc(OC(=O)c2cccc([N+](=O)[O-])c2)cc1` belongs 143 to 145 °C; to `CC(=O)NC(C)(C)C(N)=NO`, 163 to 165 °C; to `CC1=C(C(=O)Nc2ccccc2)C2(CCCCC2)C(C#N)=C(S)N1`, 238 to 240 °C. To `O=C(O)[C@@H]1CCCN1C(=O)NCc1cccc(Br)c1` belongs 146 to 148 °C. To `CCOC(=O)C1CCN(C(=O)c2ccccc2)CC1` belongs 84 to 86 °C; to `O=S(=O)(F)Cc1ccccc1Cl`, 69 to 71 °C; to `NC(=O)C1CCN(S(N)(=O)=O)CC1`, 228 to 230 °C.

In turn, `Cc1cc(CO)ccc1Cl` had a melting point of 42 to 44 °C.

`NC(=O)CNCC(N)=O` came in with a melting point of 129 to 131 °C. To `O=C(O)c1cncc(N2CCOCC2)c1` belongs 258 to 260 °C; to `O=C(O)CSc1nnc(-c2ccc3ccccc3c2)o1`, 182 to 184 °C. To `NNC(=O)c1ccc(S(=O)(=O)N2CCCC2)cc1` belongs 199 to 201 °C; to `Cc1cc(Cl)c(CCl)c(Cl)n1`, 45 to 47 °C; to `COC(=O)c1sc(-c2cccc(Cl)c2)cc1N`, 100 to 102 °C.

In the case of `O=C(CCl)NNC(=O)c1cccc(Cl)c1`, the melting point was in the range of 155 to 157 °C. To `CCOC(=O)c1c(-c2ccccc2)csc1NC(=O)C(C)Cl` (stereo unspecified) belongs 250 to 252 °C; to `O=C(NCCS(=O)(=O)Cl)OCc1ccccc1`, 39 to 41 °C; to `COC(=O)c1nc(Cl)c2ccccc2c1O`, 162 to 164 °C. To `Cc1ccc(N2N=C(C(=O)O)NCC2=O)cc1` belongs 98 to 100 °C; to `COc1cc(CCl)ccc1[N+](=O)[O-]`, 49 to 51 °C; to `CCOC(=O)N1CCCC(C(=O)O)C1` (stereo unspecified), 68 to 70 °C. To `COc1ccccc1C(=O)c1ccccc1Cl` belongs 59 to 61 °C.

The compound `Cc1nc(O)nc(O)c1N` gave a melting point of 259 to 261 °C. To `Nc1c(Cl)nc(-c2ccccc2)nc1Cl` belongs 140 to 142 °C.
